Structures can show the parent of a compound that is named as a salt.
How the values were obtained:
[1] = tested on: papillary muscle preparation from the right ventricle; experiment: Action on isolated cardiac muscle of guinea-pig: force of contraction of papillary muscle preparation; details: 30% of isoproterenol maximum reaction
Description: After sacrificing male Hartley guinea-pigs by venesection, the heart was isolated and transferred to Krebs-Henseleit solution was adequately aerated with a 95% O2/5% CO2. After promptly separating the heart into the atria and ventricles, a papillary muscle preparation from the right ventricle and a right atrium preparation were prepared. Each preparation was suspended from an FD pickup (TB-611T, Nihon Koden) at a resting tension of 0.5 g (about 5 mN) for the load in a nutrient solution consisting of organ bath maintained at 31°C. Automatic contraction of the right atrium amplified by a carrier amplifier (AP-600G, Nihon Koden) followed by recording tension and the number of beats on a recorded by means of an instantaneous heart rate counter (AT600G, Nihon Koden). […] Drug action was evaluated by determining the rate of change caused by the drug by taking the difference between the maximum reaction induced by the second administration of isoproterenol and that before drug administration to be 100%, and then calculating the EC30 value as the concentration at which drug action was 30% with respect to force of contraction based on this rate of change.

[2] = tested on: isolated corpus cavernosum of rabbit; experiment: Relaxation on norepinephrine-induced contraction in isolated corpus cavernosum of rabbit; details: for attenuation of action by pre-treatment with L-NAME: L-NAME (1 mmol/L); for IC50: Oryctolagus cuniculus
Description: (§1) Rabbits were sacrificed by venesection following severing of the carotid artery under sodium pentobarbital anesthesia. The penis was immediately isolated and transferred into Krebs-Henseleit solution (composition (mmol/L): NaCl 118.4, KCl 4.7, CaCl2 2.5, MgSO4 1.2, KH2PO4 1.2, NaHCO3 25.0, glucose 11.1), which was adequately aerated with a 95% O2/5% CO2. After cutting away the connective tissue, the penis was severed longitudinally into two sections so that half of the urethra was present in each section by using an extension of the midline as the boundary. Each preparation was suspended from an FD pickup (TB-611T, Nihon Koden) at a resting tension of 0.5 g (about 5 mN) for the load in a nutrient solution consisting of 20 ml of organ bath maintained at 37°C. Contraction was recorded as the isometric contraction on a thermal pen writing recorder (WT-685G, Nihon Koden) following amplification by a carrier amplifier (AP-621G, Nihon Koden). After replacing the nutrient solution twice every 20 minutes and allowing to equilibrate, reactivity was confirmed for each preparation by observing the contraction to 1 µmol/L of norepinephrine. After contraction stabilized, the preparation was washed by replacing the nutrient solution, after which the solution was additionally replaced twice every 20 minutes and acceptable to equilibrate.
To begin with, each preparation was contracted by norepinephrine (final concentration: 1 µmol/L). The preparation for which stable tension was obtained at this time was used in the experiment. Each drug was administered cumulatively in 10-fold ratios followed by observation of the reaction. The maximum relaxation reaction was determined by application of papaverine hydrochloride (final concentration: 100 µmol/L).
The inhibition rate at each concentration was calculated by taking the tension during addition of norepinephrine to represent an inhibition rate of 0%, and the tension during the maximum relaxation reaction induced by addition of papaverine hydrochloride to represent an inhibition rate of 100%, followed by calculation of the concentration value at which the inhibition rate was 50% (IC50).

[3] = tested on: isolated thoracic aorta of rabbit; experiment: Relaxation on norepinephrine-induced contraction in isolated thoracic aorta of rabbit; details: for IC50: Oryctolagus cuniculus
Description: as §1, with “equilibrate. To begin with, each preparation was contracted by norepinephrine (final concentration: 1 µmol/L). The preparation for which stable tension was obtained at this time was used in the experiment. Each drug was administered cumulatively in 10-fold ratios followed by observation of the reaction. The maximum relaxation reaction was determined by application of papaverine hydrochloride (final concentration: 100 µmol/L). The inhibition rate at each concentration was calculated by taking the tension during addition of norepinephrine to represent an inhibition rate of 0%, and the tension during the maximum relaxation reaction induced by addition of papaverine hydrochloride to represent an inhibition rate of 100%, followed by calculation of the concentration value at which the inhibition rate was 50% (IC50). The procedure was performed in the same manner as Experimental Example 2 with the exception of isolating the thoracic aorta and preparing in the form of a […] strip, and using 1 g (about 10 mN) of resting tension for the load.” for “equilibrate.”

[4] = Activity on intracavernous pressure by intracavernous injection to anesthetized dogs; format: in vivo
Description: Male beagle dogs having body weights of about 10 kg were anesthetized by intravenous administration of sodium pentobarbital at 35 mg/kg followed by immobilizing the animals in the dorsal position on a heating mat (SMS-2000J, Medical System Inc.) and inserting a. cannula into the trachea. A 23G winged needle for measuring internal pressure was inserted into the right corpus cavernosum, and intracavernous pressure was measured with a blood pressure measurement amplifier (AP-641G, Nihon Koden) by means of a pressure transducer (Statham P-50, Gould Co.). Moreover, a 23G winged needle for administration of drug was inserted into the right corpus cavernosum of the base followed by intracavernous injection of sodium nitroprusside (SNP, 10^-4 or 10^-3 mol/L, 0.5 ml) followed by administration of drug at the stage an increase in intracavernous pressure was confirmed. It should be noted that Compound A and milrinone were prepared with dimethyl sulfoxide-ethanol-physiological saline (1:2:30). […]
The activity of Compound A was assessed directly by administering at a volume of 0.5 ml starting from the lowest dose level at 0.243, 0.729, 2.43, 7.29, 24.3 and 72.9 µg/body (10^-6, 3 × 10^-6, 10^-5, 3 × 10^-5, 10^-4 and 3 × 10^-4 mol/L).
The effect of milrinone and zaprinast was assessed by concomitant administration of milrinone at 106 µg/body (10^-3 mol/L) and zaprinast at 136 µg/body (10^-3 mol/L) using a dosing volume of 0.5 ml each.
Intracavernous pressure was input into a polygraph (RM-6000, Nihon Koden), and together with continuously recording on a thermal pen recorder, was recorded and sampled on an external storage device (hard disk) of a computer (Macintosh Performa 5260, Apple) by means of a circulation kinetics analysis system (MP100WS, BIOPAC System) using circulation kinetics analysis software (MP/VAS 3 Ver. 1.0 beta 4.2, Physio-Tech Co., Ltd.). Maximum rate of change, duration and area under the curve (AUC) of intracavernous pressure were calculated using the circulation kinetics analysis software based on the resulting data. […]

[5] = tested on: right atrium preparation; experiment: Action on isolated cardiac muscle of guinea-pig: number of beats of right atrium preparation; details: for action on the heart relative to the action on the corpus cavernosum: EC30 heart compared with IC50 corpus cavernosum of Experimental example 2; for EC30 Heart rate: number of beats, 30% of isoproterenol maximum reaction
Description: After sacrificing male Hartley guinea-pigs by venesection, the heart was isolated and transferred to Krebs-Henseleit solution was adequately aerated with a 95% O2/5% CO2. After promptly separating the heart into the atria and ventricles, a papillary muscle preparation from the right ventricle and a right atrium preparation were prepared. Each preparation was suspended from an FD pickup (TB-611T, Nihon Koden) at a resting tension of 0.5 g (about 5 mN) for the load in a nutrient solution consisting of organ bath maintained at 31°C. Automatic contraction of the right atrium amplified by a carrier amplifier (AP-600G, Nihon Koden) followed by recording tension and the number of beats on a recorded by means of an instantaneous heart rate counter (AT600G, Nihon Koden). For the papillary muscle, a rectangular wave electrical stimulus was applied by an electrical stimulator (SEN-3201, Nihon Koden) through bipolar platinum electrodes followed by amplification of the resulting tension by a carrier amplifier (AP-600G, Nihon Koden) and recording on a recorder. The right atrium preparations were equilibrated by replacing the nutrient solution twice every 20 minutes followed by confirmation of the reactivity of each preparation by observing the number of beats in the presence of 0.1 µmol/L of isoproterenol. After the number of beats had stabilized, the preparations were washed by replacing the nutrient solution and additionally equilibrated by replacing the nutrient solution twice every 20 minutes. Each drug was administered cumulatively followed by observing the reaction. Drug action was evaluated by determining the rate of change caused by the drug by taking the difference between the maximum reaction induced by isoproterenol and that before drug administration to be 100%, and then calculating the EC30 value as the concentration at which drug action was 30% with respect to the number of beats based on this rate of change.

[6] = direct relaxation, norepinephrine 1 µmol/L contraction
[7] = pre-treatment with L-NAME (1 mmol/L)
[8] = intracavernous injection, Dunnett's test vs solvent group

Cl.O=c1[nH]nc(OCCCc2ccc(Cl)cc2)c(NCc2cccnc2)c1Br [Compound A, 4-bromo-6-[3-(4-chlorophenyl)propoxy]-5-(3-pyridylmethylamino)-3(2H)-pyridazinone hydrochloride]
EC30 Papillary muscle contraction force ([1]; hydrochloride): >30 µmol/L | attenuation of action by pre-treatment with L-NAME [2]: about one-half | IC50 [2, 6]: 330 nM | IC50 [2, 7]: 770 nM | IC50 ([2]; pre-treatment with SNP (1 nmol/L)): 150 nM | enhancement of action by pre-treatment with SNP ([2]; SNP (1 nmol/L)): about two-fold | action on the cavernous body relative to that on the aorta ([3]; IC50 aorta compared with IC50 corpus cavernosum): about 8 times | IC50 ([3]; aorta, pre-treatment with SNP (1 nmol/L)): 2710 nM | IC50 ([3]; direct relaxation, norepinephrine 1 µmol/L contraction, aorta): 2650 nM | relaxation action ([3]; aorta, cumulative administration): dose-dependent relaxation action | effect of pre-treatment with SNP on action ([3]; aorta, SNP (1 nmol/L)): completely unaffected | intracavernous pressure ([4]; intracavernous injection 0.243 to 72.9 µg/body (10^-6 to 3 × 10^-4 mol/L), after SNP): increased intracavernous pressure, nearly dose-dependently | dose with significant effects on duration of intracavernous pressure [4, 8]: ≥ 2.43 µg/body | dose with significant effects on maximum rate of change of intracavernous pressure [4, 8]: ≥ 2.43 µg/body | action on the heart relative to the action on the corpus cavernosum [5]: less than 1/90 | EC30 Heart rate ([5]; hydrochloride): >30 µmol/L

O=c1[nH]nc(OCCC(O)c2ccc(Cl)cc2)c(NCc2cccnc2)c1Br (stereo not drawn) [Compound B, 4-bromo-6-[3-(4-chlorophenyl)-3-hydroxypropoxy]-5-(3-pyridylmethylamino)-3(2H)-pyridazinone hydrochloride]
IC50 [2, 6]: 1590 nM

Cc1[nH]c(=O)c(C#N)cc1-c1ccncc1 [Milrinone, milrinone, reference compound]
EC30 Papillary muscle contraction force [1]: 33.9 µmol/L | IC50 [2, 6]: 5800 nM | action on the heart relative to the action on the corpus cavernosum [5]: about 1/2 | EC30 Heart rate [5]: 11.7 µmol/L

CCCOc1ccccc1-c1nc2nn[nH]c2c(=O)[nH]1 [Zaprinast, zaprinast, reference compound]
attenuation of action by pre-treatment with L-NAME [2]: 1/18 | IC50 [2, 6]: 5500 nM | IC50 [2, 7]: > 100000 nM
